Results on two molecules are retold here after article PMC2213148 (The Journal of Experimental Medicine, 2005).

One experiment concerns the target T1, PPAR-γ (Homo sapiens, UniProt P37231).
T1 sequence (P37231 231-505 limits assumed): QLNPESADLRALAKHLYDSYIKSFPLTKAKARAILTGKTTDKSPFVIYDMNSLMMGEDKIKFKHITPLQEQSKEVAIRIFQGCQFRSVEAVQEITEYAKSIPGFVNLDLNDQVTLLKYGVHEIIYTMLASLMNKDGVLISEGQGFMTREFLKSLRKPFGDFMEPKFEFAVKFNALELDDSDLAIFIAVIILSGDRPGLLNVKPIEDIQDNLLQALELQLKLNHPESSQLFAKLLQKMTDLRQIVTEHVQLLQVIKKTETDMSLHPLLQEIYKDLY
The experiment in a line: competitive radioligand binding with [3H]rosiglitazone on purified LBD.

The target in experiment [1] is GST-DRIP-205 fusion protein (UniProt Q15648 1-1581). Briefly: pull-down.

A word on the Ki: it is the dissociation constant of the complex between target and ligand, obtained from inhibition or displacement. Higher therefore signals a looser hold on the target.

Chain of GST-DRIP-205 fusion protein (Q15648 whole entry, the tested form may be a part): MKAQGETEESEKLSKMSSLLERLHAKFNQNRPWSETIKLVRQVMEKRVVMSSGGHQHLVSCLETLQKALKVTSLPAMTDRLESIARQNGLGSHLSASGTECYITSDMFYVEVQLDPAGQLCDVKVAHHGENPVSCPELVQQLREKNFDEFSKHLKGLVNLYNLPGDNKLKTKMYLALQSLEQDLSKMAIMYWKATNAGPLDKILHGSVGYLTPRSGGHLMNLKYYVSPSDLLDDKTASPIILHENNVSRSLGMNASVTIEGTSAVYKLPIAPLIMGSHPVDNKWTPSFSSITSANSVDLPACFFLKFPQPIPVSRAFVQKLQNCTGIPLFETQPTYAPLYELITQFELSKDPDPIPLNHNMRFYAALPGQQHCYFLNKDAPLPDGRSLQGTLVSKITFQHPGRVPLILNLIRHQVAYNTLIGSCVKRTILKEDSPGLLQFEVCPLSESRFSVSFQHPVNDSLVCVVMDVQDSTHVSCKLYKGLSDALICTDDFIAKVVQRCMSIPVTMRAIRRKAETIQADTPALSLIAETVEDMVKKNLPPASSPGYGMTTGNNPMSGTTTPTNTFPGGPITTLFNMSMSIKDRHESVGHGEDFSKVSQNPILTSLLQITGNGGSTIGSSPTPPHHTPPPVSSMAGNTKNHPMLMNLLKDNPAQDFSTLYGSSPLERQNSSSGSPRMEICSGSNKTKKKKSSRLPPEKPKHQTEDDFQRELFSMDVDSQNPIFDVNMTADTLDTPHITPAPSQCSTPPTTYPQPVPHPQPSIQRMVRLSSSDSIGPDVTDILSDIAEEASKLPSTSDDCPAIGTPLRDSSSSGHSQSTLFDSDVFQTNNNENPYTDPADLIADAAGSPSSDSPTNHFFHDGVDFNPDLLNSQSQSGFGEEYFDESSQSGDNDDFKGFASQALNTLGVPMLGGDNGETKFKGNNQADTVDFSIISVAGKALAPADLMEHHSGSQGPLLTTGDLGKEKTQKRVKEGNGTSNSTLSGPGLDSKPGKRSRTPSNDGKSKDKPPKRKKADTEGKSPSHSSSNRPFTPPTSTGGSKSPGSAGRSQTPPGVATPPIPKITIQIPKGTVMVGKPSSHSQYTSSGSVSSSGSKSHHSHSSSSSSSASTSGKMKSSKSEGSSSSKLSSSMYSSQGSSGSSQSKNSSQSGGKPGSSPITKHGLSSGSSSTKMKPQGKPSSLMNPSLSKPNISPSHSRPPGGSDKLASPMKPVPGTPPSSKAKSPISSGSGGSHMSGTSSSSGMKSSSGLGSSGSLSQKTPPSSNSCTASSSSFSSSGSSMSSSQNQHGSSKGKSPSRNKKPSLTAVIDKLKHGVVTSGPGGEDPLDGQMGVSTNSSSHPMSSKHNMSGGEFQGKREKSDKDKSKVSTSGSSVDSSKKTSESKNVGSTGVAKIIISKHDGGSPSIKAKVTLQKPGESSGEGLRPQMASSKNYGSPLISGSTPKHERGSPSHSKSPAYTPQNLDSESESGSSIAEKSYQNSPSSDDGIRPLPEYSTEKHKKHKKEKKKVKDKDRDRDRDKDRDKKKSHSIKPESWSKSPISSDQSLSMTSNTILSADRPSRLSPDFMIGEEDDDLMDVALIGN

The molecule `Nc1ccc(O)c(C(=O)O)c1` [5-ASA] showed a Ki on PPAR-γ of 28.7 mM.

B1: [35S]methionine-labeled human PPAR-γ (receptor, UniProt P37231-1 1-505, looked up)
chain: MGETLGDSPIDPESDSFTDTLSANISQEMTMVDTEMPFWPTNFGISSVDLSVMEDHSHSFDIKPFTTVDFSSISTPHYEDIPFTRTDPVVADYKYDLKLQEYQSAIKVEPASPPYYSEKTQLYNKPHEEPSNSLMAIECRVCGDKASGFHYGVHACEGCKGFFRRTIRLKLIYDRCDLNCRIHKKSRNKCQYCRFQKCLAVGMSHNAIRFGRMPQAEKEKLLAEISSDIDQLNPESADLRALAKHLYDSYIKSFPLTKAKARAILTGKTTDKSPFVIYDMNSLMMGEDKIKFKHITPLQEQSKEVAIRIFQGCQFRSVEAVQEITEYAKSIPGFVNLDLNDQVTLLKYGVHEIIYTMLASLMNKDGVLISEGQGFMTREFLKSLRKPFGDFMEPKFEFAVKFNALELDDSDLAIFIAVIILSGDRPGLLNVKPIEDIQDNLLQALELQLKLNHPESSQLFAKLLQKMTDLRQIVTEHVQLLQVIKKTETDMSLHPLLQEIYKDLY
modifications: [35S]methionine-labeled
B1: the “amount bound with 5-ASA (5 mM) relative to that with rosiglitazone (10^-5 M)” value in experiment [1] was about 150%.
